Source: US9079895B2, “Morpholino compounds, uses and methods” (University of Dundee, priority 2012, dated 2015)
Values joined by “and” are separate entries in the source; they are usually repeats but may differ in a detail not shown here. Identical values can stand only once. Like-named read-outs stand apart in the source and are kept apart here.

Assays:
[1] = molecular target: 5HT5 receptor (Homo sapiens (Human), UniProt P47898); experiment: Secondary radioligand binding assay, 5HT5; set-up: key: “—” indicates that a binding interaction was not detected; conditions: average of at least two experiments;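 further: competitive radioligand displacement on membranes from transfected cell lines, incubated at room temperature in the dark, filter-retained radioactivity counted by liquid scintillation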
Chain of 5HT5 receptor (P47898 whole entry): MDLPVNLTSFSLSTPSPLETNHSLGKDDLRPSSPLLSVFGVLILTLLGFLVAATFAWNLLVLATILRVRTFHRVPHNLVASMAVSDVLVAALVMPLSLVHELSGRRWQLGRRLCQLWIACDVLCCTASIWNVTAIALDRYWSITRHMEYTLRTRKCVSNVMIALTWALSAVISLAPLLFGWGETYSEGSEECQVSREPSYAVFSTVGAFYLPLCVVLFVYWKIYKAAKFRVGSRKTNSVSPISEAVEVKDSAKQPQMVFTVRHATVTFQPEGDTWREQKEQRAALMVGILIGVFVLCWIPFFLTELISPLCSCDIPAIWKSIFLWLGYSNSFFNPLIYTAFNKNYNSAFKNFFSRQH

[2] = molecular target: 5HT4 receptor (Homo sapiens (Human), UniProt Q13639); experiment: Secondary radioligand binding assay, 5HT4; set-up: key: “—” indicates that a binding interaction was not detected; conditions: average of at least two experiments
Chain of 5HT4 receptor (Q13639 whole entry): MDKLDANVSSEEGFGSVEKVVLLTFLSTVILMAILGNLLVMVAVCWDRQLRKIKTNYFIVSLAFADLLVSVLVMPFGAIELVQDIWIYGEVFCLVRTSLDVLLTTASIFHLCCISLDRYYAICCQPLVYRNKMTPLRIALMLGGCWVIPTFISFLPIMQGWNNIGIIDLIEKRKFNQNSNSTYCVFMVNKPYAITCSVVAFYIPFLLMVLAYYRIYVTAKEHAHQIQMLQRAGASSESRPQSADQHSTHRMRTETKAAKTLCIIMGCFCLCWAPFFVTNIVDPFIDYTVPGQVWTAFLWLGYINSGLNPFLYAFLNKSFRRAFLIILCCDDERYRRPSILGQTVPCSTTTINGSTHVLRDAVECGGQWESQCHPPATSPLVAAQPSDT
Protocol: 1. Secondary Radioligand Binding Assays The detailed experimental protocols for the radioligand and functional receptor assays are available on the NIMH PDSP website at http://pdsp.med.unc.edu/UNC-CH %20Protocol %20Book.pdf. Assay Buffer: Standard Binding Buffer (50 mM Tris-HCl, 10 mM MgCl2, 1 mM EDTA, pH 7.4) Membrane Fraction Source: Transiently or stably transfected cell lines (e.g., HEK293, COS, CHO, NIH3T3) Protocol adapted from Roth et al. (1986), J. Pharmacol. Exp. Ther., 238(2): 480-485; and Roth et al. (1994), J. Pharmacol. Exp. Ther., 268(3): 1403-1410. […] A similar stock of a reference compound (positive control) is also prepared. […] Radioligand is diluted to five times the assay concentration (see Table 18) in Standard Binding Buffer. Typically, the assay concentration of radioligand is a value between one half the KD and the KD of a particular radioligand at its target. 50 μl aliquots of radioligand are dispensed into the wells of a 96-well plate containing 100 μl of Standard Binding Buffer. Then, duplicate 50 μl aliquots of the test and reference compound dilutions are added. Finally, crude membrane fractions of cells expressing recombinant target (prepared from 10 cm plates by harvesting PBS-rinsed monolayers, resuspending and lysing in chilled, hypotonic 50 mM Tris-HCl, pH 7.4, centrifuging at 20,000×g, decanting the supernatant and storing at −80° C.; typically, one 10 cm plate provides sufficient material for 24 wells), are resuspended in 3 ml of chilled Standard Binding Buffer and homogenized by several passages through a 26 gauge needle, then 50 μl are dispensed into each well. […] Four rapid 500 μl washes are performed with chilled Standard Binding Buffer to reduce non-specific binding. Filters are placed in 6 ml scintillation tubes and allowed to dry overnight. The next day, 4 ml of EcoScint scintillation cocktail (National Diagnostics) are added to each tube. The tubes are capped, labeled, and counted by liquid scintillation counting. For higher throughput assays, bound radioactivity is harvested onto 0.3% polyethyleneimine-treated, 96-well filter mats using a 96-well Filtermate harvester. The filter mats are dried, then scintillant is melted onto the filters and the radioactivity retained on the filters is counted in a Microbeta scintillation counter. Raw data (dpm) representing total radioligand binding (i.e. specific+non-specific binding) are plotted as a function of the logarithm of the molar concentration of the competitor (i.e. test or reference compound).

[3] = molecular target: 5HT1e receptor (Homo sapiens (Human), UniProt P28566); experiment: Secondary radioligand binding assay, 5HT1e; set-up: key: “—” indicates that a binding interaction was not detected; conditions: average of at least two experiments;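 further: competition binding against a radioligand on membranes from transfected cell lines, 1.5 h at room temperature, bound radioactivity counted by liquid scintillation after filtration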
Chain of 5HT1e receptor (P28566 whole entry): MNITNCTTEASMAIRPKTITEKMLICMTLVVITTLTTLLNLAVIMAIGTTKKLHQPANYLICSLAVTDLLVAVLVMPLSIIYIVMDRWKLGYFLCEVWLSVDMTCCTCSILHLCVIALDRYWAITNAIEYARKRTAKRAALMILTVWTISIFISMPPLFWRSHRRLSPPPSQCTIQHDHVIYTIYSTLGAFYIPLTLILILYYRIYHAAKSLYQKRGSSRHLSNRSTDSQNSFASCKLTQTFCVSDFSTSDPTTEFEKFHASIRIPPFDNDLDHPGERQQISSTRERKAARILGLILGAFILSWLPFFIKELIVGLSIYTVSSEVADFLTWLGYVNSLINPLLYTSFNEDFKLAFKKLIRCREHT

[4] = molecular target: dopamine D4 receptor (Homo sapiens (Human), UniProt P21917); experiment: Secondary radioligand binding assay, D4
Chain of dopamine D4 receptor (P21917 whole entry, species assumed): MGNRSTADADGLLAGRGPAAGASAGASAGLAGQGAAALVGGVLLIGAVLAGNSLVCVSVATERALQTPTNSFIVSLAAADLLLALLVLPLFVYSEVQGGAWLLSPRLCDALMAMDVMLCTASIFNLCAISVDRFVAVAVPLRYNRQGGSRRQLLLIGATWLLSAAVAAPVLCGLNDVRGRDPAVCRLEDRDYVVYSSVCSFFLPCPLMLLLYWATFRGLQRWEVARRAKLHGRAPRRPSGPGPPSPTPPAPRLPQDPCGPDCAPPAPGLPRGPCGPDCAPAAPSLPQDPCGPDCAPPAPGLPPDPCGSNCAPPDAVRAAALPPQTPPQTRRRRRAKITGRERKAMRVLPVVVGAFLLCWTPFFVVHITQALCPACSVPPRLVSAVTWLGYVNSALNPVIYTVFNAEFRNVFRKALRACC
Protocol: 1. Secondary Radioligand Binding Assays
The detailed experimental protocols for the radioligand and functional receptor assays are available on the NIMH PDSP website at http://pdsp.med.unc.edu/UNC-CH %20Protocol %20Book.pdf.
Radioligand is diluted to five times the assay concentration (see Table 18) in Standard Binding Buffer. Typically, the assay concentration of radioligand is a value between one half the KD and the KD of a particular radioligand at its target. 50 μl aliquots of radioligand are dispensed into the wells of a 96-well plate containing 100 μl of Standard Binding Buffer. Then, duplicate 50 μl aliquots of the test and reference compound dilutions are added.
The 250 μl reactions are incubated at room temperature and shielded from light (to prevent photolysis of light-sensitive ligands) for 1.5 hours, then harvested by rapid filtration onto Whatman GF/B glass fiber filters pre-soaked with 0.3% polyethyleneimine using a 96-well Brandel harverster. Four rapid 500 μl washes are performed with chilled Standard Binding Buffer to reduce non-specific binding. Filters are placed in 6 ml scintillation tubes and allowed to dry overnight. The next day, 4 ml of EcoScint scintillation cocktail (National Diagnostics) are added to each tube. The tubes are capped, labeled, and counted by liquid scintillation counting. […] The filter mats are dried, then scintillant is melted onto the filters and the radioactivity retained on the filters is counted in a Microbeta scintillation counter.
Raw data (dpm) representing total radioligand binding (i.e. specific+non-specific binding) are plotted as a function of the logarithm of the molar concentration of the competitor (i.e. test or reference compound).
B. Dopamine Receptors: D1, D2, D3, D4, D5 Assay Buffers: Dopamine Binding Buffer (50 mM NaCl, 50 mM HEPES-HCl, 5 mM MgCl2, 0.5 mM EDTA, pH 7.4) Membrane Fraction Source: Transiently or stably transfected cell lines (e.g. HEK293, COS, CHO, NIH3T3)
The method is carried out in the manner described for the serotonin receptor assay above. Eleven dilutions (5× assay concentration) of the test and reference (see Table 19) compounds are prepared in Dopamine Binding Buffer by serial dilution, as previously described. Radioligand is diluted to five times the assay concentration (see Table 20) in Dopamine Binding Buffer.

[5] = molecular target: 5HT1a receptor (Homo sapiens (Human), UniProt P08908); experiment: Secondary radioligand binding assay, 5HT1a; conditions: average of at least two experiments
Chain of 5HT1a receptor (P08908 whole entry): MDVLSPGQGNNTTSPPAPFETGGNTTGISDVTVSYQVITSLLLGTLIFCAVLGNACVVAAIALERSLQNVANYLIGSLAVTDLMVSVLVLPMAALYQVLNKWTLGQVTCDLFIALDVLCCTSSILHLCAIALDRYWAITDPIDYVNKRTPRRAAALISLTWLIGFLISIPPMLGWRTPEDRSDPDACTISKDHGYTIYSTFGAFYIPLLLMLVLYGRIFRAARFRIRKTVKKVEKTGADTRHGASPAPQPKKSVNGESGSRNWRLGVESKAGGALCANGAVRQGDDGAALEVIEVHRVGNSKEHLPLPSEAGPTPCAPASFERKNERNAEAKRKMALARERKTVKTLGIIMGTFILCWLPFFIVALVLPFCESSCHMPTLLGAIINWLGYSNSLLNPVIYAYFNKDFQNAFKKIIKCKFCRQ

[6] = molecular target: 5HT2a receptor (Homo sapiens (Human), UniProt P28223); experiment: Secondary radioligand binding assay, 5HT2a; conditions: average of at least two experiments
Chain of 5HT2a receptor (P28223 whole entry): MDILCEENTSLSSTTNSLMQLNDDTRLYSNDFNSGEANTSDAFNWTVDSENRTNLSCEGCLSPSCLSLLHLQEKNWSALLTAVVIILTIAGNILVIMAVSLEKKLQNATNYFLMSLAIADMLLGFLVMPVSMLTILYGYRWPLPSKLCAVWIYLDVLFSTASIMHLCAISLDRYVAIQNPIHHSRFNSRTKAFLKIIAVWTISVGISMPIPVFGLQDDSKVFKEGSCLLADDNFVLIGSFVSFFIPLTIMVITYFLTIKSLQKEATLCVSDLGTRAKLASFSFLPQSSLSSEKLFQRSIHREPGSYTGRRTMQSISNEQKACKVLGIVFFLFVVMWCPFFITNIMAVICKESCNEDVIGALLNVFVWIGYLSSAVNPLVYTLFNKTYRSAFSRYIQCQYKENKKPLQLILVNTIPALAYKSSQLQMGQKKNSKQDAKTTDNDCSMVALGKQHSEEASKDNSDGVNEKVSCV

[7] = receptor binding, average of at least two experiments, read-out: Ki D4
[8] = read-out: Ki dopamine D4 (relatively high affinity)

Row | Structure (SMILES) | Ki 5HT5 [1] | Ki 5HT4 [2] | Ki 5HT1e [3] | Ki [4, 7] | Ki [5] [µM] | Ki [6] [µM] | Ki [4, 8] [µM]
1 | O=C(CN1CCO[C@@H](COc2ccccn2)C1)N1CCc2ccccc21 [Compound 14r, (R)-1-(Indolin-1-yl)-2-(2-((pyridin-2-yloxy)methyl)morpholino)ethanone] | — | — | — |  |  |  | 
2 | c1ccc(OC[C@H]2CN(CCN3CCc4ccccc43)CCO2)nc1 [Compound 15r, (R)-4-(2-(Indolin-1-yl)ethyl)-2-((pyridin-2-yloxy)methyl)morpholine] | — | — | — | 0.814 µM | 2.88 |  | 
3 | Cc1ccnc(OC[C@H]2CN(CC(=O)N3CCc4ccccc43)CCO2)c1 [Compound 16r] | — | — | — |  |  |  | 
4 | Cc1ccnc(OC[C@H]2CN(CCN3CCc4ccccc43)CCO2)c1 [Compound 17r, (R)-4-(2-(Indolin-1-yl)ethyl)-2-(((4-methylpyridin-2-yl)oxy)methyl)morpholine] | — | — | — | 1.93 µM |  |  | 
5 | O=C(CN1CCO[C@H](COc2ccccc2)C1)N1CCc2ccccc21 [Compound 18s, (S)-1-(Indolin-1-yl)-2-(2-(phenoxymethyl)morpholino)ethanone] | — | — | — | 5.53 µM |  |  | 
6 | O=C(CN1CCO[C@@H](COc2cccnc2)C1)N1CCc2ccccc21 [Compound 20r, (R)-1-(Indolin-1-yl)-2-(2-((pyridin-3-yloxy)methyl)morpholino)ethanone] | — | — | — |  |  | 2.66 | 
7 | O=C(CN1CCO[C@H](COc2cccnc2)C1)N1CCc2ccccc21 [Compound 20s, (S)-1-(Indolin-1-yl)-2-(2-((pyridin-3-yloxy)methyl)morpholino)ethanone] | — | — | — |  |  |  | 
8 | c1cncc(OC[C@H]2CN(CCN3CCc4ccccc43)CCO2)c1 [Compound 21r, (R)-4-(2-(Indolin-1-yl)ethyl)-2-((pyridin-3-yloxy)methyl)morpholine] | — | — | — | 2.41 µM |  | 3.58 | 
9 | c1cncc(OC[C@@H]2CN(CCN3CCc4ccccc43)CCO2)c1 [Compound 21s, (S)-4-(2-(Indolin-1-yl)ethyl)-2-((pyridin-3-yloxy)methyl)morpholine] | — | — | — | 0.182 µM | 10 | 3.54 | 
10 | Clc1cccc(OC[C@H]2CN(CCN3CCc4ccccc43)CCO2)c1 [Compound 23r, (R)-2-((3-Chlorophenoxy)methyl)-4-(2-(indolin-1-yl)ethyl)morpholine] | — | — | — |  |  | 2.67 | 
11 | Cc1ncccc1OC[C@H]1CN(CCN2CCc3ccccc32)CCO1 [Compound 26r, (R)-4-(2-(Indolin-1-yl)ethyl)-2-(((2-methylpyridin-3-yl)oxy)methyl)morpholine] | — | — | — |  |  |  | 
12 | Cc1ncccc1OC[C@@H]1CN(CCN2CCc3ccccc32)CCO1 [Compound 26s, (S)-4-(2-(Indolin-1-yl)ethyl)-2-(((2-methylpyridin-3-yl)oxy)methyl)morpholine] | — | — | — | < 1 µM and 0.435 µM |  |  | < 1
13 | Clc1cncc(OC[C@H]2CN(CCN3CCc4ccccc43)CCO2)c1 [Compound 27r, (R)-2-(((5-Chloropyridin-3-yl)oxy)methyl)-4-(2-(indolin-1-yl)ethyl)morpholine] | — | — | — |  |  |  | 
14 | Clc1cncc(OC[C@@H]2CN(CCN3CCc4ccccc43)CCO2)c1 [Compound 27s, (S)-2-(((5-Chloropyridin-3-yl)oxy)methyl)-4-(2-(indolin-1-yl)ethyl)morpholine] | — | — | — |  |  |  | 
15 | Cc1ccc(OC[C@H]2CN(CCN3CCc4ccccc43)CCO2)cn1 [Compound 28r, (R)-4-(2-(Indolin-1-yl)ethyl)-2-(((6-methylpyridin-3-yl)oxy)methyl)morpholine] | — | — | — |  |  | 1.48 | 
16 | Cc1ccc(OC[C@@H]2CN(CCN3CCc4ccccc43)CCO2)cn1 [Compound 28s, (S)-4-(2-(Indolin-1-yl)ethyl)-2-(((6-methylpyridin-3-yl)oxy)methyl)morpholine] | — | — | — | < 1 µM |  |  | < 1
17 | Cc1ccnc(C)c1OC[C@H]1CN(CCN2CCc3ccccc32)CCO1 [Compound 29r, (R)-2-(((2,4-Dimethylpyridin-3-yl)oxy)methyl)-4-(2-(indolin-1-yl)ethyl)morpholine] | — | — | — | 4.95 µM |  | > 10 | 
18 | Cc1ncccc1OC[C@@H]1CN(CC(=O)N2c3ccccc3CC2C)CCO1.Cl (stereo partly drawn) [Compound 60] | — | — | — |  | 0.592 |  | 
19 | Cc1ncccc1OC[C@H]1CN(CC(=O)N2c3ccccc3CC2C)CCO1 (stereo partly drawn) [Compound 62] | — | — | — |  | 6.59 |  | 
20 | Cc1ncccc1OC[C@H]1CN(CC(=O)N2c3ccccc3C[C@H]2C)CCO1 [Compound 63] | — | — | — |  | 5.02 |  | 
21 | C[C@@H]1Cc2ccccc2N1C(=O)CN1CCO[C@@H](COc2ccncc2)C1 [Compound 67] | — | — | — |  | > 10 |  | 
22 | CC1Cc2ccccc2N1C(=O)CN1CCO[C@@H](COc2ccncc2)C1 (stereo partly drawn) [Compound 68] | — | — | — |  | > 10 |  | 
23 | CC1Cc2ccccc2N1C(=O)CN1CCO[C@@H](COc2ccccn2)C1 (stereo partly drawn) [Compound 69] | — | — | — |  | > 10 |  | 
